Assay results taken from patent US20120101083A1, “S1P1 AGONISTS COMPRISING A BICYCLIC N-CONTAINING RING” (GLAXO GROUP LIMITED, priority 2009, published 2012).

Experiments:
circulating lymphocytes = conditions: animals and man; cited from earlier work
[1] = clinical studies, first 24 hours of treatment; cited from earlier work
[2] = biological target: T1, human Endothelial Differentiation Gene 1 (EDG1) (Homo sapiens, UniProt P21453); experiment: S1P1 Tango assay, 384 well format; type: cell-based; conditions: EDG1-bla/U2OS cells
T1 construct: TEV protease cleavage site; Gal4-VP16 transcription factor (printed Ga14-VP16); expressed in transfected cells; host or cells: Tango GPCR-bla U2OS parental cell line (EDG1-bla/U2OS)
Description: S1P1 Tango Assay—384 Well Format
Recombinant EDG1-bla/U2OS cells (contain the human Endothelial Differentiation Gene 1 (EDG1) linked to a TEV protease site and a Ga14-VP16 transcription factor stably integrated into the Tango GPCR-bla U20S parental cell line) were harvested from growth medium and passaged into assay medium (Invitrogen Freestyle Expression Medium). The cells were starved for 24 hours at 37° C., 5% CO2, harvested and resuspended in assay medium at a density of ˜200,000 cells/ml. All test compounds were dissolved in DMSO at a concentration of 10 mM and were prepared in 100% DMSO to provide 10 point dose response curves. Test compounds prepared by Bravo (Velocity11) were added to wells in columns 2-11 and 13-22; DMSO was added to wells in columns 12 and 23 as unstimulated controls and assay medium was added to wells in columns 1 and 24 as cell-free controls. […]
10 μl of 6× substrate mixture (LiveBLAzer™-FRET B/G substrate (CCF4-AM) Cat # K1096 from Invitrogen, Inc.) was added to each well using Bravo and the plates incubated at room temperature for 2 h in the dark. The plate was finally read on EnVision using one excitation channel (409 nm) and two emission channels (460 nm and 530 nm).
The blue/green emission ratio (460 nm/530 nm) was calculated for each well, by dividing the background-subtracted Blue emission values by the background-subtracted Green emission values. […]

[3] = biological target: T2, human Endothelial Differentiation G-protein Coupled Receptor 3 (EDG3) (Homo sapiens, UniProt Q99500); experiment: S1P3 GeneBlazer assay; type: cell-based; conditions: EDG3-Ga15-NFAT-bla HEK 293T cells
T2 construct: expressed in transfected cells; host or cells: GeneBLAzer Ga15-NFAT-bla HEK 293T cell line
Description: GeneBLAzer EDG3-Ga15-NFAT-bla HEK 293T cells (contain the human Endothelial Differentiation G-protein Coupled Receptor 3 (EDG3) and a beta-lactamase reporter gene under control of a NFAT response element and a promiscuous G Protein, Ga15, stably integrated into the GeneBLAzer Ga15-NFAT-bla HEK 293T cell line) were suspended in assay medium (99% DMEM, 1% Dialyzed FBS, 0.1 mM NEAA, 25 mM HEPES (pH 7.3), 100 U/ml penicillin, 100 μg/ml streptomycin) at a density of 312, 500 cells/ml. Add 100 μl/well of the assay medium to the cell-free control wells (column 12) and 100 μl/well of the cell suspension to the test compound wells (row 2-8, column 1-10), the unstimulated control wells (DMSO) (column 11), and stimulated control wells (S1P) (row 1, column 1-10) in a Corning black-well, clear bottom 96-well plate. Cells were incubated at 37° C., 5% CO2 for 24 h. […]
After incubation at 37° C., 5% CO2 for 5 h, 25 μl of 6× substrate mixture (6 μl Solution A (1 mg LiveBLAzer™-FRET B/G Substrate (CCF4-AM) in 912 μl DMSO) plus 60 μl Solution B plus 934 μl Solution C) was added to each well and incubate at room temperature for 2 h in dark. The plate was finally read on EnVision for two emission channels (460 nm and 530 nm). […]

T1 sequence (P21453 whole entry, the tested form may be a part): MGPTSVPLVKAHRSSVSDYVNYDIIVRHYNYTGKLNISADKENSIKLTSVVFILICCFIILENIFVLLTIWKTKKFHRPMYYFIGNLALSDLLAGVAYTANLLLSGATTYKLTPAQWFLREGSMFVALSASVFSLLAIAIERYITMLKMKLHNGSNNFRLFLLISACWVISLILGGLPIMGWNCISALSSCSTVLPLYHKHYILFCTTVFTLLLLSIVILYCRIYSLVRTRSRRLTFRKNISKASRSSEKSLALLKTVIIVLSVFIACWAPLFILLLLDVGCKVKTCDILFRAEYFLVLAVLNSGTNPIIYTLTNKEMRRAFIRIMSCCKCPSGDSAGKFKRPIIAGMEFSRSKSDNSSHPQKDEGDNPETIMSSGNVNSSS
T2 sequence (Q99500 whole entry): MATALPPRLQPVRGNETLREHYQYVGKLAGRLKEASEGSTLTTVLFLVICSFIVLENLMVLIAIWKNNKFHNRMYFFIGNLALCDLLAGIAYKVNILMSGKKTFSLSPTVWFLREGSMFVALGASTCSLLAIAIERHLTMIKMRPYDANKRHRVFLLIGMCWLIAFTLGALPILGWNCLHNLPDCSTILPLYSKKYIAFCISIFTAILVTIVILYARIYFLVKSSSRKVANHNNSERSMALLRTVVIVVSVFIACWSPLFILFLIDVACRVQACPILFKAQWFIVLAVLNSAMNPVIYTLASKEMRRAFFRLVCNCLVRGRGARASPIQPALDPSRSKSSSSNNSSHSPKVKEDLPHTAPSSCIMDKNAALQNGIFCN

| Structure (SMILES) | circulating lymphocytes (circulating lymphocytes) | bradycardia [1] | EC50 [2] | EC50 [3] |
| --- | --- | --- | --- | --- |
| CCCCCCCCc1ccc(CCC(N)(CO)CO)cc1 [FTY720] | reduce circulating lymphocytes in animals and man | bradycardia in the first 24 hours of treatment | – | – |
| CCc1c(-c2nnc(-c3ccc(OC(C)C)c(C#N)c3)s2)ccc2c1CCN(C(CO)CO)C2 [Example 205, 5-(5-{5-ethyl-2-[2-hydroxy-1-(hydroxymethyl)ethyl]-1,2,3,4-tetrahydro-6-isoquinolinyl}-1,3,4-thiadiazol-2-yl)-2-[(1-methylethyl)oxy]benzonitrile] | – | – | < 0.1 µM | > 10 µM |
| CCc1c(-c2cnc(-c3ccc(OC(C)C)c(C#N)c3)s2)ccc2c1CCN(C(CO)CO)C2 [Example 204, 5-(5-{5-ethyl-2-[2-hydroxy-1-(hydroxymethyl)ethyl]-1,2,3,4-tetrahydro-6-isoquinolinyl}-1,3-thiazol-2-yl)-2-[(1-methylethyl)oxy]benzonitrile] | – | – | < 1 µM | > 10 µM |
